Series [1] concerns the target T1, Receptor-interacting serine/threonine-protein kinase 1 (Homo sapiens) (UniProt Q13546).
T1 sequence (whole entry): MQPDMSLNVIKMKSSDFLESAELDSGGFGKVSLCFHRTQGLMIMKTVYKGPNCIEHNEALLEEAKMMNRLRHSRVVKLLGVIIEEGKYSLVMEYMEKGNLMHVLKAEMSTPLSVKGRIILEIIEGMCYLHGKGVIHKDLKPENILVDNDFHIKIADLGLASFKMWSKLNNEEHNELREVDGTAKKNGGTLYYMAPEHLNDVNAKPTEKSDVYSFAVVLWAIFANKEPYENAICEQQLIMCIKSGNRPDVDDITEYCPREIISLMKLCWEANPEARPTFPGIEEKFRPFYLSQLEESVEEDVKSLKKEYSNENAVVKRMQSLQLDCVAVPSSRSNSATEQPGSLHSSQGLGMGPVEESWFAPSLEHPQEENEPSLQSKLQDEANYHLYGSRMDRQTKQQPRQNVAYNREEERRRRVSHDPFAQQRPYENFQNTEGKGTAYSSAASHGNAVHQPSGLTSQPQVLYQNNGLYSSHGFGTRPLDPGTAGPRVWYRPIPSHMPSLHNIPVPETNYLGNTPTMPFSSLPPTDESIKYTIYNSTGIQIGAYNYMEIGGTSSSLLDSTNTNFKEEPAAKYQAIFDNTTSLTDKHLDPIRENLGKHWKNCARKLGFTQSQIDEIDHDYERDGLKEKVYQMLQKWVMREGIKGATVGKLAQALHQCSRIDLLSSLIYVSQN
Briefly: Inhibition of wild-type human partial length RIPK1 (M1 to K305 residues) expressed in bacterial expression system assessed as residual activity at 10 uM by Kinomescan method relative to control.

Series [2] is described as follows: Plasma protein binding in dog. Type of series: ADME, cell-free, Canis lupus familiaris. The note with it: read-out: PPB (converted).
Series [3] can be described thus: Oral bioavailability in mouse at 10 mg/kg. It is filed as ADME, organism-based. The note with it: in vivo.
A short description of series [4]: Cmax in mouse at 10 mg/kg, po. Type of series: ADME, organism-based. The arrangement: route oral, dose 10 mg/kg. The note with it: in vivo.
A short description of series [5]: Plasma protein binding in rat. Type of series: ADME, cell-free. As to conditions: read-out: PPB (converted).
For series [6], the target named is Epithelial discoidin domain-containing receptor 1 (Homo sapiens) (UniProt Q08345). Briefly: Inhibition of wild-type human partial length DDR1 (R565 to V876 residues) expressed in bacterial expression system assessed as residual activity at 10 uM by Kinomescan method relative to control.
The target of series [7] is BDNF/NT-3 growth factors receptor (Homo sapiens) (UniProt Q16620). Briefly: Inhibition of wild-type human partial length TRKB (Q547 to G838 residues) expressed in mammalian expression system assessed as residual activity at 10 uM by Kinomescan method relative to control.
BDNF/NT-3 growth factors receptor (Homo sapiens), sequence (Q16620 32-822 limits assumed): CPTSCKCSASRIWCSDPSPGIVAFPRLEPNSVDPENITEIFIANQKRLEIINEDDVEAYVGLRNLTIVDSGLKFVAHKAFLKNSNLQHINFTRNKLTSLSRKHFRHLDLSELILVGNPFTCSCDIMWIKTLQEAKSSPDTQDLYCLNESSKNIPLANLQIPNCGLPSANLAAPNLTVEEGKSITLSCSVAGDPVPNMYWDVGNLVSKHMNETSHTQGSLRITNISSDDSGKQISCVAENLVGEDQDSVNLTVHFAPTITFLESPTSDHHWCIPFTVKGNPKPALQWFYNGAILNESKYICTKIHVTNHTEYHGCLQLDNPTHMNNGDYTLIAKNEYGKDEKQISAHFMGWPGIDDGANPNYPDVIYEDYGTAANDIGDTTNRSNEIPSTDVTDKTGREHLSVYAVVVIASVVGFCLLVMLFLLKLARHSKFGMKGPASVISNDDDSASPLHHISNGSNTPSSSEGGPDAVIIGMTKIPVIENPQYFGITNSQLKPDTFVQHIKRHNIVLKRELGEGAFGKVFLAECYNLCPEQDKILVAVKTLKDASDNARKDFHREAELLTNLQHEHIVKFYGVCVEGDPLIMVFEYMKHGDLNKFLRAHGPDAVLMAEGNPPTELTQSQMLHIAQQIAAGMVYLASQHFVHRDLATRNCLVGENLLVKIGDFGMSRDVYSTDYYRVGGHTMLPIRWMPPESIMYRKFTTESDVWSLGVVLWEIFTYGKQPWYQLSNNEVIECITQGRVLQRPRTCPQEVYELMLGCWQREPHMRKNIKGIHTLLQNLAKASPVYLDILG

Epithelial discoidin domain-containing receptor 1 (Homo sapiens), sequence (Q08345 whole entry, the tested form may be a part): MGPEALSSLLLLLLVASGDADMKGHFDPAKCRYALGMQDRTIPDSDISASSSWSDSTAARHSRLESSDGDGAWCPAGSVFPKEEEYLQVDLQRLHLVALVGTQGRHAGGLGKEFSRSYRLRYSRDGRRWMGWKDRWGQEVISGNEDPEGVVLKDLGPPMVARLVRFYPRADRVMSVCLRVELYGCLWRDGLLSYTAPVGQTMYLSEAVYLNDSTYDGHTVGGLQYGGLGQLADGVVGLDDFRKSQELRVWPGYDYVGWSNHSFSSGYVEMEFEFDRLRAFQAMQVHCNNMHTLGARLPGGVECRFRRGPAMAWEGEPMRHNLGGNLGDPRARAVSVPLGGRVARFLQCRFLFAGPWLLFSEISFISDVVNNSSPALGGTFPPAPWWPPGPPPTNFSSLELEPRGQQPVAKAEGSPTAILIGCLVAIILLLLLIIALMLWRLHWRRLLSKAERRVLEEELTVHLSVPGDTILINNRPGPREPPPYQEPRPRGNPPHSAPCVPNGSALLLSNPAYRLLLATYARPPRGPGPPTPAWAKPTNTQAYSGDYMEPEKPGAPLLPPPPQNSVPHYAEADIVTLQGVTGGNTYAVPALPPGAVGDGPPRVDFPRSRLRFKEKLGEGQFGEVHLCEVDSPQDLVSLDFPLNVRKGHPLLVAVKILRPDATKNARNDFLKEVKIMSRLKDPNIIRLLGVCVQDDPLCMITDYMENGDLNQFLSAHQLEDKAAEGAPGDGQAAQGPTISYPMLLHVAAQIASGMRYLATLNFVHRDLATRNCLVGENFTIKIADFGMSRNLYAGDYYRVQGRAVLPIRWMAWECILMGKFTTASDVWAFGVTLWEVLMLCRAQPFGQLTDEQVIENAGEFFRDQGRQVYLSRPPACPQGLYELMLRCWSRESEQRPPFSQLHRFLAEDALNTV

Take `CCc1cc(NC(=O)[C@H](O)c2cc(F)cc(F)c2)ccc1-c1cnc(N)c(C(=O)NC(C)C)c1`: the Activity in series [1], in series [6] and in series [7] was 100% in each case. For the same compound, the fraction unbound in series [2] was 0.002; in series [5] it was 0.007. Further, in series [3], the bioavailability (commonly the share of a dose that reaches the circulation, judged against a reference dose that is usually intravenous) came to 70%. Further, the Cmax (commonly the highest concentration seen after dosing) in series [4] stood at 3350 ng/mL.

The values are drawn from ChEMBL document CHEMBL4819104, “Discovery of 2-amino-3-amido-5-aryl-pyridines as highly potent, orally bioavailable, and efficacious PERK kinase inhibitors” (Bioorg Med Chem Lett, 2021).
